Experimental data from publication PMC8125440, “A Novel N-Tert-Butyl Derivatives of Pseudothiohydantoin as Potential Target in Anti-Cancer Therapy” (Molecules, 2021).

What was measured:
[1] = biological target: T1, 11β-hydroxysteroid dehydrogenase type 2 (11β-HSD2) (Homo sapiens, UniProt P80365); experiment: cortisol to cortisone conversion in human kidney microsomes, cortisol ELISA; type: cell-based
T1 construct: gene HSD11B2
T1 sequence (P80365 1-405): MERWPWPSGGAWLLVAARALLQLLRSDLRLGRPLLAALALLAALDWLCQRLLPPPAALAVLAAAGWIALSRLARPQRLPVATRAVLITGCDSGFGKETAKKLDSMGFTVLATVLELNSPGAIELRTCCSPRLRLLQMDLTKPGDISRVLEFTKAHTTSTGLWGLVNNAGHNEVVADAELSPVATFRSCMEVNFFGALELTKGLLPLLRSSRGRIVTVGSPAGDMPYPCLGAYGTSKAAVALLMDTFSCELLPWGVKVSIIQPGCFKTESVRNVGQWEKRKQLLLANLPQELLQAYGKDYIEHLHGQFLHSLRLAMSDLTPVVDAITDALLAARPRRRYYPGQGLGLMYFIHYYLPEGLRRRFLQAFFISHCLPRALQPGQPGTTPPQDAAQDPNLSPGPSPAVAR

[2] = biological target: T2, 11β-hydroxysteroid dehydrogenase type 1 (11β-HSD1) (Homo sapiens, UniProt P28845); experiment: cortisone to cortisol conversion in pooled human liver microsomes, cortisol ELISA; type: cell-based
T2 construct: gene HSD11B1
T2 sequence (P28845 whole entry): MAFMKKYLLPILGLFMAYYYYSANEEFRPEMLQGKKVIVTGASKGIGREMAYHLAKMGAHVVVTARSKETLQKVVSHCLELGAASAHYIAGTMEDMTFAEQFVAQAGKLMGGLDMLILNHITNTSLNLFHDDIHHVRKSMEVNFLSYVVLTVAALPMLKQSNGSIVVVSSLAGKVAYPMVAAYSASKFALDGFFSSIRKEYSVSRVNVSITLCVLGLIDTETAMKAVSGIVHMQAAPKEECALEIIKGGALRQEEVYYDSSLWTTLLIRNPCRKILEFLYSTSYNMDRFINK

inhibition at 10 µM [1] | inhibition at 10 µM [2] | SMILES
53.6% | – | CC(C)(C)NC1=NC(=O)C(c2ccccc2)S1 (centres unmarked) [3f, 2-(tert-Butylamino)-5-phenylthiazol-4(5H)-one]
– | 82.5% | CC(C)(C)NC1=NC(=O)C2(CCCCC2)S1 [3h, 2-(tert-Butylamino)-1-thia-3-azaspiro[4.5]dec-2-en-4-one]
